# Results: article PMC9487510, “A Novel Oral GyrB/ParE Dual Binding Inhibitor Effective against Multidrug-Resistant Neisseria gonorrhoeae and Other High-Threat Pathogens” (Antimicrobial Agents and Chemotherapy, 2022)
# Where two headings read alike, the source gives them in different places.
# Columns and labels:
# Neisseria = type: cell-based, N. gonorrhoeae; conditions: at 1× MIC; resistance not observed; data not shown
# B. anthracis = assay: microbe, parasite or virus in culture; type: cell-based; conditions: for MIC: Bacillus anthracis
# [1] = test system: vancomycin-resistant enterococci (VRE); assay: MIC, in vitro susceptibility testing (CLSI); type: cell-based; conditions: Enterococcus
# MRSE = assay: MIC, in vitro susceptibility testing (CLSI); type: cell-based, Staphylococcus epidermidis; conditions: for MIC: Staphylococcus epidermidis, MRSE, read-out: MIC
# [2] = Liver microsome stability, mouse; type: in vitro ADME; conditions: male, CD-1, mouse, liver microsomes, pH 7.4
# Method: Liver microsome stability assays were performed by BioDuro Inc. Human and mouse (CD-1 male) liver microsomes were used. […] Next, 50 μL of reaction buffer was added to solution and mixed via pipetting up and down 6 times. At each time point of 0, 30, and 60 min, an aliquot of 20 μL was removed from each tube. Liver microsomes (LM) working solution was prepared in 0.05 M phosphate reaction buffer (pH = 7.4) to a final concentration of 1.27 mg/mL. NADPH solution was prepared in 0.05 M phosphate buffer to afford a 5 mM buffer solution. […] After vortexing and incubating for 5 min (37°C), 50 μL of NADPH solution was added and mixed via pipetting. At each time point of 0, 5, 15, 30, and 60 min, an aliquot of 20 μL was removed from each tube. Next, 250 μL of quenching solution was aliquoted to quench the reaction, which was then vortexed for 1 min and placed on ice for 40 min. After centrifugation at 4,000 × g for 15 min, 100 μL of supernatant was transferred using a multichannel pipette to 0.65-mL tubes. Samples were diluted with MeOH: H2O (1:1) as necessary. Samples were analyzed by high-pressure liquid chromatography coupled to tandem mass spectrometry (LC/MS/MS) performed on a Sciex Applied Biosystems Qtrap 4000 triple-quadrupole mass spectrometer coupled to a Shimadzu HPLC system to quantify the remaining compound. Data were processed using Analyst software (version 1.4.2; Applied Biosystems Sciex). […] Metabolite identification on the microsomal extracts was performed using a Q-Exactive HRMS coupled with an Ultimate 3000 HPLC system and a Kinetix C18 2.1 × 50-mm 2.6-μm HPLC column.
# hERG K+ channel = hERG K+ channel (Homo sapiens, UniProt Q12809); assay: hERG inhibition, whole-cell patch clamp in HEK-293 cells; conditions: pH 7.4
# Chain of hERG K+ channel (Q12809 whole entry): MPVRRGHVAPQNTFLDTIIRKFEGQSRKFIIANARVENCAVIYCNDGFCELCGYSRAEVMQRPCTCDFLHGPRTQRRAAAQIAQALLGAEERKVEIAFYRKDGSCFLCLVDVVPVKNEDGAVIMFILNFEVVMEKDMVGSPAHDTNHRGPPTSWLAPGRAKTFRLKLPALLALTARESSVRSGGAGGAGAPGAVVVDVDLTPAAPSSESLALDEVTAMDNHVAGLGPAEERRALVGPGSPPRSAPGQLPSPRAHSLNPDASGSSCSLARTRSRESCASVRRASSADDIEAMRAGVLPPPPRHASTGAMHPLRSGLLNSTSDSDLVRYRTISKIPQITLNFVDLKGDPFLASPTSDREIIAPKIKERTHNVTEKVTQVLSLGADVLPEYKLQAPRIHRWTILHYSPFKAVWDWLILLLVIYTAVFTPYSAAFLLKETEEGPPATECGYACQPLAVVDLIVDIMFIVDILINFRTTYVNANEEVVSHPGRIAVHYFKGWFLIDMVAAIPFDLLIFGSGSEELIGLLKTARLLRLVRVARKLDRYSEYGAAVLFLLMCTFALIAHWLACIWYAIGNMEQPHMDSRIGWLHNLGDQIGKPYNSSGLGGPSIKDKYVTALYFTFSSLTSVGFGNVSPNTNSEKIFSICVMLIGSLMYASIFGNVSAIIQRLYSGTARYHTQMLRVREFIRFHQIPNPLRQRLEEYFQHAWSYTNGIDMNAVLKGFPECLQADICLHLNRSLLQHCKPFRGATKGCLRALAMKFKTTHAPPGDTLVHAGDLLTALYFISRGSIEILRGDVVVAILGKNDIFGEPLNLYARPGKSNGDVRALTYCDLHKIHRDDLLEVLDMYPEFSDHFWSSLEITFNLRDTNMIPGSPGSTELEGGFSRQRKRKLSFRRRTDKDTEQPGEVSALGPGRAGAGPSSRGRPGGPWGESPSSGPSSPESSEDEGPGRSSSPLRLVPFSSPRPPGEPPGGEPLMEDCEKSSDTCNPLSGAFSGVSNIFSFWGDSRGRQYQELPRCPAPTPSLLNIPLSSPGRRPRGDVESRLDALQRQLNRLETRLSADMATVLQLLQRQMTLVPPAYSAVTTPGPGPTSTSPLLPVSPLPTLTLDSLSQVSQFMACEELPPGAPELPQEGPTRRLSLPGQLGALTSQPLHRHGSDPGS
# VISA = assay: MIC, in vitro susceptibility testing (CLSI); type: cell-based, Staphylococcus aureus; conditions: for MIC: Staphylococcus aureus, VISA
smiles,measurement,setting,value
CNc1cc(F)cc2c1[nH]c1nc(Oc3cnc(C)nc3)nc(N3CCC4(CC3)CO[C@@H](CO)C4)c12 [JSF-2414],spontaneous resistance frequency,Neisseria,< 7.5 × 10^−4
same,MIC,B. anthracis; strain Ames,0.049 µg/mL
same,MIC,B. anthracis; strain Vollum V1B,0.098 µg/mL
same,MIC range,B. anthracis; N = 2,0.049 to 0.098 µg/mL
same,MIC,[1]; strain 2138,> 0.5 µg/mL
same,MIC,[1]; strain 2139,0.002 µg/mL
same,MIC,[1]; strain 2927,0.008 µg/mL
same,MIC,[1]; strain 2966,0.004 µg/mL
same,MIC,[1]; strain 2967,0.031 µg/mL
same,MIC,[1]; strain 3090,> 0.5 µg/mL
same,MIC,[1]; strain 3091,0.002 µg/mL
same,MIC,[1]; strain 3322,0.016 µg/mL
same,MIC range,MRSE; N = 4,0.002 to 0.004 µg/mL
same,MIC,MRSE; strain 9 25,0.004 µg/mL
same,MIC,MRSE; strain 9 26,0.002 µg/mL
same,MIC,MRSE; strain 9 27,0.002 µg/mL
same,MIC,MRSE; strain 9 28,0.004 µg/mL
same,microsomal CLint at 1 μM,[2]; read-out: MLM Clint,11.9 µL/min/mg
same,half-life at 1 μM,[2]; read-out: MLM t1/2,58.2 min
same,IC50 at 3 min,hERG K+ channel,> 50 µM
same,MIC range,VISA; N = 8,0.0156 to 0.063 µg/mL
same,MIC,VISA; strain 2 11 43,0.0156 to 0.031 µg/mL
same,MIC,VISA; strain 2 11 56,0.063 µg/mL
same,MIC,VISA; strain 2 11 57,0.031 to 0.063 µg/mL
same,MIC,VISA; strain 2 11 61,0.0156 to 0.031 µg/mL
same,MIC,VISA; strain 2 11 71,0.0156 to 0.031 µg/mL
same,MIC,VISA; strain 2 11 78,0.0156 to 0.031 µg/mL
same,MIC,VISA; strain 2 11 86,0.031 µg/mL
same,MIC,VISA; strain 2 13 52,0.0156 to 0.031 µg/mL
